Data from the OligoGym collection.
Bases are written 5' to 3'; sugars and linkages follow in the same order, as letters with counts (s phosphorothioate, o phosphodiester; PS: all linkages phosphorothioate). The collection does not say whether C is 5-methylated. l = locked nucleic acid (LNA); d = 2'-deoxy (DNA)

Each sequence was assayed against Tau (assay: rat primary cortical neurons, FLIPR, 25 uM ASO).

Sequence | calcium oscillation score
ACTTCTAATTTAGTCAC (sugars l4 d9 l4, PS) | 77.2 % of control
ACTTGGGTGGAGTACGGACC (sugars l3 d14 l3, PS) | 0 % of control
ACTTGTACACGATCTCCGCC (sugars l3 d14 l3, PS) | 103 % of control
ACTTTATCCCTCCATGA (sugars l3 d11 l3, PS) | 39.6 % of control
ACTTTATCCCTCCATGAT (sugars l3 d11 l4, PS) | 47.4 % of control
ACTTTATTTCCAAATTCACT (sugars l4 d11 l5, PS) | 115 % of control
ACTTTATTTCCAAATTCACT (sugars l5 d10 l5, PS) | 98 % of control
ACTTTATTTCCAAATTCACT (sugars l5 d11 l4, PS) | 138 % of control
ACTTTATTTCCAAATTCACTT (sugars l5 d11 l5, PS) | 121 % of control
ACTTTATTTCCAAATTCACTTTTAC (sugars l1 d1 l2 d18 l3, PS) | 23.6 % of control
ACTTTATTTCCAAATTCACTTTTAC (sugars l1 d19 l5, PS) | 86.5 % of control
ACTTTATTTCCAAATTCACTTTTAC (sugars l3 d18 l4, PS) | 35.4 % of control
ACTTTATTTCCAAATTCACTTTTAC (sugars l4 d16 l2 d1 l2, PS) | 29.5 % of control
ACTTTATTTCCAAATTCACTTTTAC (sugars ldllddddddddddddddddllldl, PS) | 76.7 % of control
ACTTTATTTCCAAATTCACTTTTAC (sugars ldllldddddddddddddddllddl, PS) | 17.7 % of control
ACTTTATTTCCAAATTCACTTTTAC (sugars llddldddddddddddddddllddl, PS) | 17.7 % of control
ACTTTATTTCCAAATTCACTTTTAC (sugars lldldddddddddddddddddlldl, PS) | 29.5 % of control
ACTTTATTTCCAAATTCACTTTTAC (sugars lldlddddddddddddddddldlll, PS) | 35.4 % of control
ACTTTATTTCCAAATTCACTTTTAC (sugars llldddddddddddddddddldldl, PS) | 17.7 % of control
ACTTTCCTAATTCCCAAATT (sugars l3 d15 l2, PS) | 63.3 % of control

Sequence | calcium oscillation score
ACTTTTGAACCCATTCC (sugars l2 d12 l3, PS) | 83.6 % of control
AGAAATAAGTGGTAGT (sugars l2 d11 l3, PS) | 102 % of control
AGAAATAAGTGGTAGT (sugars l2 d12 l2, PS) | 86.9 % of control
AGAAATAAGTGGTAGT (sugars l3 d9 l4, PS) | 101 % of control
AGAAATAAGTGGTAGT (sugars l3 d11 l2, PS) | 85.7 % of control
AGAAATAAGTGGTAGT (sugars l4 d8 l4, PS) | 88.1 % of control
AGAAATAAGTGGTAGT (sugars l4 d9 l3, PS) | 89.3 % of control
AGAACTTCTAGTTATACAGT (sugars l3 d14 l3, PS) | 35.7 % of control
AGAATATTACACCATC (sugars l4 d8 l4, PS) | 102 % of control
AGACACCTCGTCAGCTAGCG (sugars l3 d14 l3, PS) | 9.07 % of control
AGACCACATTTCCATCC (sugars l2 d13 l2, PS) | 72 % of control
AGACCACATTTCCATCCC (sugars l1 d15 l2, PS) | 71.6 % of control
AGACTATTTGCACACTGCCG (sugars l3 d14 l3, PS) | 40.7 % of control
AGAGACCACATTATCATCCA (sugars l3 d14 l3, PS) | 26.2 % of control
AGAGAGACCACATTATCATC (sugars l3 d14 l3, PS) | 68.5 % of control
AGAGGAACGTGTGGAT (sugars l3 d10 l3, PS) | 25.9 % of control
AGAGGCACAAGTCCT (sugars l3 d9 l3, PS) | 74.3 % of control
AGAGGCACAAGTCCTT (sugars l3 d10 l3, PS) | 78.1 % of control
AGATATTCATTCCCTCA (sugars l3 d12 l2, PS) | 53 % of control
AGATCATCCATTTTCTT (sugars l2 d11 l4, PS) | 55.3 % of control
